Reference: publication PMC7527219 (Science Advances, 2020)
“Also recorded” adds a separate entry of the source. Peptide text beside a SMILES is read from it.

Key:
[1] = b7: ref [9], [10]; b55: ref [10]; cited from earlier work
[2] = molecular target: PmtCD PSM transporter (C2D2 heterotetramer) (S. aureus); assay: MST

| Compound | cytotoxicity (in words) [1] | stoichiometry N [2] |
| --- | --- | --- |
| CSCC[C@H](NC=O)C(=O)N[C@@H](CCC(=O)O)C(=O)N[C@@H](C)C(=O)N[C@H](C(=O)N[C@@H](C)C(=O)N[C@@H](CCCCN)C(=O)N[C@@H](CC(C)C)C(=O)N[C@@H](Cc1ccccc1)C(=O)N[C@@H](CCCCN)C(=O)N[C@@H](Cc1ccccc1)C(=O)N[C@@H](Cc1ccccc1)C(=O)N[C@@H](CCCCN)C(=O)N[C@@H](CC(=O)O)C(=O)N[C@@H](CC(C)C)C(=O)N[C@@H](CC(C)C)C(=O)NCC(=O)N[C@@H](CCCCN)C(=O)N[C@@H](Cc1ccccc1)C(=O)N[C@@H](CC(C)C)C(=O)NCC(=O)N[C@@H](CC(N)=O)C(=O)N[C@@H](CC(N)=O)C(=O)O)C(C)C [PSMα3F3A] (HELM PEPTIDE1{[O=C[*:2]].M.E.A.V.A.K.L.F.K.F.F.K.D.L.L.G.K.F.L.G.N.N}$$$$V2.0) | cytotoxic; also recorded: maintains cytotoxicity | – |
| PSMα3F3A peptide | – | > 2 |
